We go through eight compounds from ChEMBL document CHEMBL2157943, “Role of the side chain stereochemistry in the α-glucosidase inhibitory activity of kotalanol, a potent natural α-glucosidase inhibitor. Part 2” (Bioorg Med Chem, 2012).

The target of assay [1] is T1, Sucrase-isomaltase, intestinal (Rattus norvegicus, UniProt P23739). Description: Inhibition of rat small intestinal isomaltase after 30 mins by glucose-oxidase method.
Assay [2] deals with Lysosomal alpha-glucosidase (Rattus norvegicus) (UniProt Q6P7A9). Conditions: 100 ug/ml.
Description: Inhibition of rat small intestinal maltase at 100 ug/ml after 30 mins by glucose-oxidase method
For assay [3], the target named is Sucrase-isomaltase, intestinal (Rattus norvegicus) (UniProt P23739). Conditions: 100 ug/ml.
Description: Inhibition of rat small intestinal sucrase at 100 ug/ml after 30 mins by glucose-oxidase method
The target of assay [4] is T1, Sucrase-isomaltase, intestinal. Description: Inhibition of rat small intestinal sucrase after 30 mins by glucose-oxidase method.

Broadly, the IC50 is the midpoint of a concentration-inhibition curve. Read a high IC50 as lower potency. What is called inhibition is the relative decrease from the control value, in per cent. Read a low inhibition as little suppression.

Chain of Lysosomal alpha-glucosidase (Rattus norvegicus) (Q6P7A9 whole entry): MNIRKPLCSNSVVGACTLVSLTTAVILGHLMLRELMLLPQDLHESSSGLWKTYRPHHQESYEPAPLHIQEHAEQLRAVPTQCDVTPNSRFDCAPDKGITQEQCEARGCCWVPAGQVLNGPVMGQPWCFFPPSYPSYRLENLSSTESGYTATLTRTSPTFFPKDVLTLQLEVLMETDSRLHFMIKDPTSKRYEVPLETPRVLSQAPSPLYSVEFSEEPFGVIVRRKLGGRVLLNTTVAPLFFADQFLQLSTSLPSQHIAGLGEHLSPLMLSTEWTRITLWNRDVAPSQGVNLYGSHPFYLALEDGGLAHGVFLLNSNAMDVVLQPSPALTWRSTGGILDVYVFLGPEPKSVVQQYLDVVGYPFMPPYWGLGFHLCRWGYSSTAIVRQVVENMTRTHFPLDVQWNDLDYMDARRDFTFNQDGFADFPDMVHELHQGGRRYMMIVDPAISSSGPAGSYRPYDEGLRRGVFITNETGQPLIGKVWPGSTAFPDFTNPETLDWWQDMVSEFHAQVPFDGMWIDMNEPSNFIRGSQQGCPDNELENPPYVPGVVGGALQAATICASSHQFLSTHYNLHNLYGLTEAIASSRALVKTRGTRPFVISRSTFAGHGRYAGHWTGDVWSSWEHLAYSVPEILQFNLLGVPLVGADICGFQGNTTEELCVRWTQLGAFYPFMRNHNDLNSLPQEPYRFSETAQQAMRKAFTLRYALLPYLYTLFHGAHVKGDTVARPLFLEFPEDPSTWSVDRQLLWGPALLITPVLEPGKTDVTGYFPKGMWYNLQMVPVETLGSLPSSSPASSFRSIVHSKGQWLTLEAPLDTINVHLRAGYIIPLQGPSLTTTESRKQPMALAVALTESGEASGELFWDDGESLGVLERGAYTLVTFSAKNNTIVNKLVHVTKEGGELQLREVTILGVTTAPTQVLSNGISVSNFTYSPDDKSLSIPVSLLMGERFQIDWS
Chain of Sucrase-isomaltase, intestinal (Rattus norvegicus) (P23739 1-1013 limits assumed): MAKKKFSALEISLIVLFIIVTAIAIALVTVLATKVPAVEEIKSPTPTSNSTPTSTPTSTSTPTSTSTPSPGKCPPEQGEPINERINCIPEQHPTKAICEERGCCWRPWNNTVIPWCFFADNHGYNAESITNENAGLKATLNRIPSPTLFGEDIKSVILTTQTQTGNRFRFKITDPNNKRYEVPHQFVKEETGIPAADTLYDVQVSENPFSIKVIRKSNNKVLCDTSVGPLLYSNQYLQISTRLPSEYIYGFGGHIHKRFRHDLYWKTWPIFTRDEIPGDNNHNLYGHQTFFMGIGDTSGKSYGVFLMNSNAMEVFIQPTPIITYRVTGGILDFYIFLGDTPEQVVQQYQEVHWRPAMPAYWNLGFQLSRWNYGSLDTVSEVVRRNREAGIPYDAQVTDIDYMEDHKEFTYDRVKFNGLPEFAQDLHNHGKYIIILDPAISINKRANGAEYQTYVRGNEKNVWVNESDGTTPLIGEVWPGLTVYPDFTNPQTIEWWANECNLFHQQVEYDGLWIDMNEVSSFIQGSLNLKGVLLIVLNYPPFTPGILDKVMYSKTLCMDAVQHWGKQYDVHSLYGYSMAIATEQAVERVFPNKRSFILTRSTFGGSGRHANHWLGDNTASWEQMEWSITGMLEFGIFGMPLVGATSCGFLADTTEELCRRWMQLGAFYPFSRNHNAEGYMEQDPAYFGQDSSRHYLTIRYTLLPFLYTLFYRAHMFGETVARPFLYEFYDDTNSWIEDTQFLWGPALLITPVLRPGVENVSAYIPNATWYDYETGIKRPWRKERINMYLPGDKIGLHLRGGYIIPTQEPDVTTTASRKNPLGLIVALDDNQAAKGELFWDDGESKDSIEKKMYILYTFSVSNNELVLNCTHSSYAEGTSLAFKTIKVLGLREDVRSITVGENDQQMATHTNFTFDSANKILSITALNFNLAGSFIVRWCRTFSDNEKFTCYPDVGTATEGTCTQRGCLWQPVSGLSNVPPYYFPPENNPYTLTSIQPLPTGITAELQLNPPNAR
Chain of Sucrase-isomaltase, intestinal (Rattus norvegicus) (P23739 1014-1841 limits assumed): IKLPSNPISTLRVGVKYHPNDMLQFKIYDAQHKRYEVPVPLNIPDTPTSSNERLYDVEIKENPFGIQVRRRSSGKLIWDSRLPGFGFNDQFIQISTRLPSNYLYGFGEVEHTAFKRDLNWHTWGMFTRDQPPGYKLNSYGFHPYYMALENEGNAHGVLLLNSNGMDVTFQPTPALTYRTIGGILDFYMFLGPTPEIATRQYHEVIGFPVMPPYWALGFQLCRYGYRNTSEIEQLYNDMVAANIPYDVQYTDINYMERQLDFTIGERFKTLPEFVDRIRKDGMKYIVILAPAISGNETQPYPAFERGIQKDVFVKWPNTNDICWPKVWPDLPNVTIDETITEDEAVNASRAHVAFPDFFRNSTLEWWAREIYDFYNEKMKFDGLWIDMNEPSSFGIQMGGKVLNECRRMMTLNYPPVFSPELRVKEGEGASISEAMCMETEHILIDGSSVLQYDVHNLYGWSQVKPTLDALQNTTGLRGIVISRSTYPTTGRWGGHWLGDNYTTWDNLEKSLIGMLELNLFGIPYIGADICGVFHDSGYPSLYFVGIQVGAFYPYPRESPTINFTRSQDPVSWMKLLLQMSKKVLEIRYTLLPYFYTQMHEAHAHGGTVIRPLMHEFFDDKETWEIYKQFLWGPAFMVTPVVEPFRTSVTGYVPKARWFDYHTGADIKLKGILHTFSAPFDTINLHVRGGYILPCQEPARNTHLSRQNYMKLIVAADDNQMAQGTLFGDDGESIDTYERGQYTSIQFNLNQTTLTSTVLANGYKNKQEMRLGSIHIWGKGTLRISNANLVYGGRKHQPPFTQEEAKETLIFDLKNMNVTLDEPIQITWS
T1 sequence (P23739 1-1013 limits assumed): as the sequence (P23739 1-1013 limits assumed) above
T1 sequence (P23739 1014-1841 limits assumed): as the sequence (P23739 1014-1841 limits assumed) above

Consider `O=S(=O)([O-])O[C@H]([C@@H](O)[C@H](O)[C@@H](O)CO)[C@H](O)C[S@+]1C[C@@H](O)[C@H](O)[C@H]1CO`, for which the IC50 in assay [1] is 20 µM; in assay [4], above 236 µM. Also, the values for the inhibition in assay [2] and in assay [3] were 32% and 28%, respectively.

For the compound `O=S(=O)([O-])O[C@@H]([C@@H](O)[C@H](O)[C@H](O)CO)[C@H](O)C[S@+]1C[C@@H](O)[C@H](O)[C@H]1CO`, the IC50 in assay [1] is 16 µM; in assay [4], 214 µM. The inhibition in assay [2] stood at 44%.

For `O=S(=O)([O-])O[C@@H]([C@@H](O)[C@@H](O)[C@@H](O)CO)[C@H](O)C[S@+]1C[C@@H](O)[C@H](O)[C@H]1CO`, the IC50 amounted to 6.5 µM in assay [1] and 32 µM in assay [4].

Take `O=S(=O)([O-])O[C@@H]([C@@H](O)[C@H](O)[C@@H](O)CO)[C@H](O)C[S@+]1C[C@@H](O)[C@H](O)[C@H]1CO`: the IC50 in assay [1] was found to be 11 µM; in assay [4], 136 µM. Further, the inhibition in assay [2] came to 42%.

In the case of `O=S(=O)([O-])O[C@H]([C@@H](O)[C@@H](O)[C@@H](O)CO)[C@H](O)C[S@+]1C[C@@H](O)[C@H](O)[C@H]1CO`, the half-inhibitory concentration (IC50) in assay [1] is 21 µM; in assay [4], above 236 µM. Also, the inhibition in assay [2] came to 45%; in assay [3] it was 34%.

As to `O=S(=O)([O-])O[C@H]([C@@H](O)[C@H](O)[C@H](O)CO)[C@H](O)C[S@+]1C[C@@H](O)[C@H](O)[C@H]1CO`, the IC50 in assay [1] is 58 µM; in assay [4] it was 55 µM.

As to `O=S(=O)([O-])O[C@H]([C@@H](O)[C@@H](O)[C@H](O)CO)[C@H](O)C[S@+]1C[C@@H](O)[C@H](O)[C@H]1CO` (mixture of isomers), the IC50 in assay [1] was 16 µM; in assay [4], above 236 µM. Also, the inhibition was 25% in assay [2] and 8% in assay [3].

On to `O=S(=O)([O-])O[C@@H]([C@@H](O)[C@@H](O)[C@H](O)CO)[C@H](O)C[S@+]1C[C@@H](O)[C@H](O)[C@H]1CO`, for which the half-inhibitory concentration (IC50) in assay [1] worked out at 1.6 µM; in assay [4], 67 µM.
